Measurements from the supplement of paper PMC10307832.

Columns and labels:
Experiment in all cases: relative viability (nuclei count vs DMSO), 5 days (fraction); higher = more cells survive
[1] = test system: NCI-H1666
Outline: (§1)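 Medians of duplicate plates are given as relative viability. That measure is the nuclei count in treated wells divided by the count in vehicle wells. Counts were taken on 4× images of lung cancer cell lines in 1536-well plates, 5 days after pin-tool dosing the day after seeding with one drug alone or a fixed anchor-drug dose plus five library-drug doses (not always all listed) in √10 steps.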

[2] = test system: COR-L 105
Outline: as §1

[3] = test system: A-427
Outline: as §1

[4] = test system: NCI-H358
Outline: as §1

[5] = test system: HOP-62
Outline: as §1

[6] = test system: NCI-H460
Outline: as §1

[7] = test system: NCI-H2170
Outline: as §1

[8] = test system: LC-2-ad
Outline: as §1

[9] = test system: HCC-366
Outline: as §1

[10] = test system: SW 900
Outline: as §1

[11] = test system: NCI-H2009
Outline: as §1

[12] = test system: HCC-78
Outline: as §1

[13] = test system: SK-LU-1
Outline: as §1

[14] = test system: NCI-H2085
Outline: as §1

[15] = test system: UMC-11
Outline: as §1

[16] = test system: NCI-H1793
Outline: as §1

[17] = test system: EPLC-272H
Outline: as §1

[18] = test system: LU99A
Outline: as §1

[19] = test system: LXF-289
Outline: as §1

[20] = test system: NCI-H1944
Outline: as §1

[21] = test system: NCI-H1915
Outline: as §1

Structure (SMILES): CC(=O)O[C@@]12CO[C@@H]1C[C@H](O)[C@@]1(C)C(=O)[C@H](O)C3=C(C)[C@@H](OC(=O)[C@H](O)[C@@H](NC(=O)OC(C)(C)C)c4ccccc4)C[C@@](O)([C@@H](OC(=O)c4ccccc4)[C@H]21)C3(C)C [Docetaxel] + O=C(CCCCCCC(=O)Nc1ccccc1)NO [Vorinostat] (partner 1 µM)
- relative viability ([1]; first compound 0.0002 µM): 0.893
- relative viability ([1]; first compound 0.000632 µM): 0.992
- relative viability ([1]; first compound 0.002 µM): 0.681
- relative viability ([1]; first compound 0.006325 µM): 0.706
- relative viability ([1]; first compound 0.02 µM): 0.47
- relative viability ([2]; first compound 0.0002 µM): 0.889
- relative viability ([2]; first compound 0.000632 µM): 0.747
- relative viability ([2]; first compound 0.002 µM): 0.392
- relative viability ([2]; first compound 0.006325 µM): 0.413
- relative viability ([2]; first compound 0.02 µM): 0.368
- relative viability ([3]; first compound 0.0002 µM): 0.824
- relative viability ([3]; first compound 0.000632 µM): 0.822
- relative viability ([3]; first compound 0.002 µM): 0.621
- relative viability ([3]; first compound 0.006325 µM): 0.36
- relative viability ([3]; first compound 0.02 µM): 0.27
- relative viability ([4]; first compound 0.0002 µM): 0.625
- relative viability ([4]; first compound 0.000632 µM): 0.399
- relative viability ([4]; first compound 0.002 µM): 0.109
- relative viability ([4]; first compound 0.006325 µM): 0.112
- relative viability ([4]; first compound 0.02 µM): 0.0606
- relative viability ([5]; first compound 0.0002 µM): 0.522
- relative viability ([5]; first compound 0.000632 µM): 0.346
- relative viability ([6]; first compound 0.0002 µM): 0.637
- relative viability ([6]; first compound 0.000632 µM): 0.349
- relative viability ([6]; first compound 0.002 µM): 0.0613
- relative viability ([6]; first compound 0.006325 µM): 0.0388
- relative viability ([6]; first compound 0.02 µM): 0.0166
- relative viability ([7]; first compound 0.0002 µM): 0.787
- relative viability ([7]; first compound 0.000632 µM): 0.551
- relative viability ([7]; first compound 0.002 µM): 0.388
- relative viability ([7]; first compound 0.006325 µM): 0.162
- relative viability ([7]; first compound 0.02 µM): 0.136
- relative viability ([8]; first compound 0.0002 µM): 0.472
- relative viability ([8]; first compound 0.000632 µM): 0.275
- relative viability ([8]; first compound 0.002 µM): 0.209
- relative viability ([8]; first compound 0.006325 µM): 0.227
- relative viability ([8]; first compound 0.02 µM): 0.152
- relative viability ([9]; first compound 0.0002 µM): 0.299
- relative viability ([9]; first compound 0.000632 µM): 0.0824
- relative viability ([9]; first compound 0.002 µM): 0.0503
- relative viability ([9]; first compound 0.006325 µM): 0.0366
- relative viability ([9]; first compound 0.02 µM): 0.0211
- relative viability ([10]; first compound 0.0002 µM): 0.523
- relative viability ([10]; first compound 0.000632 µM): 0.284
- relative viability ([10]; first compound 0.002 µM): 0.277
- relative viability ([10]; first compound 0.006325 µM): 0.203
- relative viability ([10]; first compound 0.02 µM): 0.235
- relative viability ([11]; first compound 0.0002 µM): 0.714
- relative viability ([11]; first compound 0.000632 µM): 0.715
- relative viability ([11]; first compound 0.002 µM): 0.707
- relative viability ([11]; first compound 0.006325 µM): 0.301
- relative viability ([11]; first compound 0.02 µM): 0.176
- relative viability ([12]; first compound 0.0002 µM): 0.473
- relative viability ([12]; first compound 0.000632 µM): 0.374
- relative viability ([12]; first compound 0.002 µM): 0.261
- relative viability ([12]; first compound 0.006325 µM): 0.31
- relative viability ([12]; first compound 0.02 µM): 0.313
- relative viability ([13]; first compound 0.0002 µM): 0.754
- relative viability ([13]; first compound 0.000632 µM): 0.537
- relative viability ([13]; first compound 0.002 µM): 0.38
- relative viability ([13]; first compound 0.006325 µM): 0.349
- relative viability ([13]; first compound 0.02 µM): 0.226
- relative viability ([14]; first compound 0.0002 µM): 0.82
- relative viability ([14]; first compound 0.000632 µM): 0.734
- relative viability ([14]; first compound 0.002 µM): 0.736
- relative viability ([14]; first compound 0.006325 µM): 0.355
- relative viability ([14]; first compound 0.02 µM): 0.488
- relative viability ([15]; first compound 0.0002 µM): 0.402
- relative viability ([15]; first compound 0.000632 µM): 0.287
- relative viability ([15]; first compound 0.002 µM): 0.155
- relative viability ([15]; first compound 0.006325 µM): 0.203
- relative viability ([15]; first compound 0.02 µM): 0.108
- relative viability ([16]; first compound 0.0002 µM): 0.724
- relative viability ([16]; first compound 0.000632 µM): 0.479
- relative viability ([16]; first compound 0.002 µM): 0.199
- relative viability ([16]; first compound 0.006325 µM): 0.26
- relative viability ([16]; first compound 0.02 µM): 0.163
- relative viability ([17]; first compound 0.0002 µM): 0.532
- relative viability ([17]; first compound 0.000632 µM): 0.162
- relative viability ([17]; first compound 0.002 µM): 0.0568
- relative viability ([17]; first compound 0.006325 µM): 0.0865
- relative viability ([17]; first compound 0.02 µM): 0.0652
- relative viability ([18]; first compound 0.0002 µM): 0.529
- relative viability ([18]; first compound 0.000632 µM): 0.373
- relative viability ([18]; first compound 0.002 µM): 0.278
- relative viability ([18]; first compound 0.006325 µM): 0.269
- relative viability ([18]; first compound 0.02 µM): 0.173
- relative viability ([19]; first compound 0.0002 µM): 0.797
- relative viability ([19]; first compound 0.000632 µM): 0.392
- relative viability ([19]; first compound 0.002 µM): 0.168
- relative viability ([19]; first compound 0.006325 µM): 0.19
- relative viability ([19]; first compound 0.02 µM): 0.118
- relative viability ([20]; first compound 0.0002 µM): 0.604
- relative viability ([20]; first compound 0.000632 µM): 0.538
- relative viability ([20]; first compound 0.002 µM): 0.423
- relative viability ([20]; first compound 0.006325 µM): 0.223
- relative viability ([20]; first compound 0.02 µM): 0.172
- relative viability ([21]; first compound 0.0002 µM): 0.531
- relative viability ([21]; first compound 0.000632 µM): 0.258
- relative viability ([21]; first compound 0.002 µM): 0.316
- relative viability ([21]; first compound 0.006325 µM): 0.174
- relative viability ([21]; first compound 0.02 µM): 0.0863
